This passage reports CC50 and IC50 results from ChEMBL document CHEMBL1128927, “Synthesis and biological activities of [N-MeLeu5] didemnin B” (Bioorg Med Chem Lett, 1996).

Holding throughout (format): functional
For experiment [1], the system named is RXF 393. Kind of experiment: Compound was evaluated for cytotoxic activity against renal cancer RXF-393 cell lines. The conditions noted are these: Homo sapiens, read-out: LC50 (the source's name).
The subject of experiment [2] is SNB-75. Kind of experiment: Compound was evaluated for cytotoxic activity against CNS cancer SNB-75 cell lines. The conditions noted are these: Homo sapiens, read-out: LC50 (the source's name).
Experiment [3] concerns HT-29. Kind of experiment: Compound was evaluated for cytotoxic activity against colon cancer HT-29 cell lines. The conditions noted are these: Homo sapiens, read-out: LC50 (the source's name).
Experiment [4] concerns A549. Kind of experiment: Compound was evaluated for cytotoxic activity against non-small lung cancer A549/ATCC cell lines. To be noted: Homo sapiens, read-out: LC50 (the source's name).
In experiment [5] the test system is SK-MEL-5. Kind of experiment: Compound was evaluated for cytotoxic activity against melanoma Sk-MEL-5 cell lines. To be noted: Homo sapiens, read-out: LC50 (the source's name).
The species entered for experiment [6] is Oryctolagus cuniculus. Kind of experiment: In vitro inhibition of protein synthesis in rabbit reticulocyte lysates.

Take `CC[C@H](C)[C@H]1NC(=O)[C@@H](NC(=O)[C@@H](CC(C)C)N(C)C(=O)[C@@H]2CCCN2C(=O)[C@H](C)O)[C@@H](C)OC(=O)[C@H](CC(C)C)N(C)C(=O)[C@@H]2CCCN2C(=O)[C@H](CC(C)C)NC(=O)[C@@H](C)C(=O)[C@H](C(C)C)OC(=O)C[C@@H]1O` [listing 1 of 2 here]: the CC50 in experiment [1] was 258 nM; in experiment [2], 399 nM; in experiment [3] it was 445 nM; in experiment [4], greater than 25000 nM; in experiment [5] it was 79.9 nM.
As usually defined, the IC50 is the point on the concentration scale where inhibition reaches its midpoint. Turning to `CC[C@H](C)[C@H]1NC(=O)[C@@H](NC(=O)[C@@H](CC(C)C)N(C)C(=O)[C@@H]2CCCN2C(=O)[C@H](C)O)[C@@H](C)OC(=O)[C@H](CC(C)C)N(C)C(=O)[C@@H]2CCCN2C(=O)[C@H](CC(C)C)NC(=O)[C@@H](C)C(=O)[C@H](C(C)C)OC(=O)C[C@@H]1O` [listing 2 of 2 here], the IC50 in experiment [6] was 9000 nM.
